Common to all, as to format: toxicity, cell-based
Series [1] concerns U2OS. The series is described as follows: Incucyte cell viability with U2OS. To be noted: human, 10 µM, compound concentration 10 uM.
Series [2] concerns HEK-293T. The series is described as follows: Incucyte cell viability with HEK293T. To be noted: human, 10 µM, compound concentration 10 uM.
Series [3] deals with Fibroblast. The series is described as follows: Incucyte cell viability with human fibroblast. To be noted: 10 µM, compound concentration 10 uM.
Also: unitless GR value; below 1 slowed growth and below 0 cell loss.

Regarding `COc1cc2ncnc(Nc3ccc(F)c(Cl)c3)c2cc1OCCN(C)C[C@H](C)O`, the “Growth Rate” value in series [1] (0 h, replicate number 2) is 0.24; in series [1] (6 h, replicate number 1), 0.7; in series [1] (6 h, replicate number 2), 0.36; in series [1] (12 h, replicate number 1), 0.68; in series [1] (12 h, replicate number 2), 0.35; in series [1] (18 h, replicate number 1), 0.77. Besides, the “Growth Rate” value was 0.44 in series [1] (18 h, replicate number 2); 0.92 in series [1] (24 h, replicate number 1); 0.42 in series [1] (24 h, replicate number 2); -0.98 in series [2] (0 h, replicate number 2); 0.36 in series [2] (6 h, replicate number 1); 0.69 in series [2] (6 h, replicate number 2). Moreover, the “Growth Rate” value is recorded as 0.61 in series [2] (12 h, replicate number 1); 0.49 in series [2] (12 h, replicate number 2); 0.65 in series [2] (18 h, replicate number 1); 0.69 in series [2] (18 h, replicate number 2); 0.65 in series [2] (24 h, replicate number 1); 0.73 in series [2] (24 h, replicate number 2). Moreover, the “Growth Rate” value in series [3] (0 h, replicate number 2) is given as 0; in series [3] (6 h, replicate number 1), -0.42; in series [3] (6 h, replicate number 2), 0.44; in series [3] (12 h, replicate number 1), -0.2; in series [3] (12 h, replicate number 2), -0.12; in series [3] (18 h, replicate number 1) it was -0.23. The “Growth Rate” value is listed as -0.05 in series [3] (18 h, replicate number 2); -0.21 in series [3] (24 h, replicate number 1); 0 in series [3] (24 h, replicate number 2).

`Cc1cc(C)cc(C(=O)NOCCCCCC(=O)NO)c1`: the “Growth Rate” value in series [1] (6 h, replicate number 1) worked out at 0.62; in series [1] (6 h, replicate number 2), 0.86; in series [1] (12 h, replicate number 2), 0.58; in series [1] (18 h, replicate number 1) it was 0.71; in series [1] (18 h, replicate number 2), 0.5; in series [1] (24 h, replicate number 1) it was 0.26. For the same molecule, the “Growth Rate” value in series [1] (24 h, replicate number 2) was 0.22; in series [2] (0 h, replicate number 2), 0.89; in series [2] (12 h, replicate number 1), 0.34; in series [2] (12 h, replicate number 2), 0.82; in series [2] (18 h, replicate number 1), 0.12; in series [2] (18 h, replicate number 2), 0.44. Further, the “Growth Rate” value in series [2] (24 h, replicate number 1) is given as 0.14; in series [2] (24 h, replicate number 2) it was 0.28; in series [3] (0 h, replicate number 1) it was -0.28; in series [3] (6 h, replicate number 2), -0.16; in series [3] (12 h, replicate number 1), -0.96; in series [3] (12 h, replicate number 2), 0.86. For the same molecule, the “Growth Rate” value in series [3] (18 h, replicate number 1) is -0.74; in series [3] (18 h, replicate number 2) it was 0.23; in series [3] (24 h, replicate number 1), -0.33; in series [3] (24 h, replicate number 2), 0.51.

Regarding `Cc1c(-c2c(F)cc(C(N)=O)c3[nH]c4c(c23)CC[C@H](C(C)(C)O)C4)cccc1-n1c(=O)c2cccc(F)c2n(C)c1=O` [BMS-986142], the “Growth Rate” value in series [1] (0 h, replicate number 1) came out at 0.59; in series [1] (0 h, replicate number 2), 0.95; in series [1] (6 h, replicate number 1), 0.26; in series [1] (6 h, replicate number 2), 0.48; in series [1] (12 h, replicate number 1), 0.52; in series [1] (12 h, replicate number 2) it was 0.67. The “Growth Rate” value in series [1] (18 h, replicate number 1) is listed as 0.59; in series [1] (18 h, replicate number 2) it was 0.66; in series [1] (24 h, replicate number 1), 0.49; in series [1] (24 h, replicate number 2), 0.73; in series [2] (6 h, replicate number 1), -0.93; in series [2] (6 h, replicate number 2), -0.99. Moreover, the “Growth Rate” value is -0.7 in series [2] (12 h, replicate number 1); -0.83 in series [2] (12 h, replicate number 2); -0.43 in series [2] (18 h, replicate number 1); -0.59 in series [2] (18 h, replicate number 2); -0.25 in series [2] (24 h, replicate number 1); -0.39 in series [2] (24 h, replicate number 2). The “Growth Rate” value was -1 in series [3] (0 h, replicate number 1); -0.27 in series [3] (6 h, replicate number 1); -0.9 in series [3] (6 h, replicate number 2); 0.08 in series [3] (12 h, replicate number 1); 0.19 in series [3] (12 h, replicate number 2); 0.54 in series [3] (18 h, replicate number 1). Also, the “Growth Rate” value in series [3] (18 h, replicate number 2) came to 0.73; in series [3] (24 h, replicate number 1), 0.8; in series [3] (24 h, replicate number 2), 1.

Consider `CC1(C)CC(CN2CCC(F)(CNC(=O)c3cc(Cl)cc(Cl)c3)CC2)CCO1` (stereo not given), for which the “Growth Rate” value is recorded as -0.43 in series [1] (0 h, replicate number 1); 0.71 in series [1] (6 h, replicate number 1); 0.8 in series [1] (6 h, replicate number 2); 0.85 in series [1] (12 h, replicate number 1); 0.4 in series [2] (6 h, replicate number 1); -1 in series [3] (6 h, replicate number 1). In addition, the “Growth Rate” value in series [3] (6 h, replicate number 2) is given as 0.34; in series [3] (24 h, replicate number 2), 0.97.

`CCc1ccc(-c2ncn(CC3(F)CCN(C)CC3)c2-c2ccnc3[nH]ccc23)nc1`: the “Growth Rate” value in series [1] (0 h, replicate number 1) was found to be 0.47; in series [1] (6 h, replicate number 1) it was 0.66; in series [1] (12 h, replicate number 1) it was 0.71; in series [1] (12 h, replicate number 2) it was 0.69; in series [1] (18 h, replicate number 1) it was 0.85; in series [1] (18 h, replicate number 2), 0.83. Also, the “Growth Rate” value in series [1] (24 h, replicate number 1) is reported as 0.87; in series [1] (24 h, replicate number 2), 0.75; in series [2] (0 h, replicate number 1) it was -0.12; in series [2] (0 h, replicate number 2), 0.98; in series [2] (6 h, replicate number 1), 0; in series [2] (6 h, replicate number 2), 0.08. Besides, the “Growth Rate” value in series [2] (12 h, replicate number 1) turned out to be 0.43; in series [2] (12 h, replicate number 2) it was 0.35; in series [2] (18 h, replicate number 1), 0.76; in series [2] (18 h, replicate number 2), 0.72; in series [2] (24 h, replicate number 1), 0.9; in series [2] (24 h, replicate number 2) it was 0.69. Also, the “Growth Rate” value in series [3] (0 h, replicate number 1) is reported as 0.78; in series [3] (0 h, replicate number 2) it was 0.42; in series [3] (6 h, replicate number 2) it was 0.83; in series [3] (18 h, replicate number 1), 0.78; in series [3] (18 h, replicate number 2), 0.97; in series [3] (24 h, replicate number 1) it was 0.93.

With `Cc1cccc(-c2nn(C(=S)Nc3ccccc3)cc2-c2ccnc3ccccc23)n1`, the “Growth Rate” value in series [1] (0 h, replicate number 2) is on record as -0.94; in series [1] (6 h, replicate number 1), 0.88; in series [1] (6 h, replicate number 2) it was 0.81; in series [1] (18 h, replicate number 2), 0.98; in series [1] (24 h, replicate number 2), 0.88; in series [2] (0 h, replicate number 1), 0.78. Further, the “Growth Rate” value in series [3] (0 h, replicate number 2) was -1; in series [3] (6 h, replicate number 1), 1; in series [3] (12 h, replicate number 1) it was -1.

For `CCCCCN1C(=O)C2(COc3cc4c(cc32)OCO4)c2ccccc21` (stereo not given), the “Growth Rate” value in series [1] (0 h, replicate number 1) is -0.63; in series [1] (0 h, replicate number 2), -1; in series [1] (6 h, replicate number 2), 0.76; in series [1] (12 h, replicate number 2), 0.8; in series [1] (18 h, replicate number 2), 0.98; in series [1] (24 h, replicate number 2), 0.88. The “Growth Rate” value in series [2] (0 h, replicate number 2) is on record as 0.62; in series [2] (6 h, replicate number 1), 0.51; in series [2] (6 h, replicate number 2), 0.92; in series [3] (6 h, replicate number 2) it was -0.97; in series [3] (12 h, replicate number 2), 0.76; in series [3] (18 h, replicate number 1) it was -0.52. Further, the “Growth Rate” value stood at 0.91 in series [3] (18 h, replicate number 2); 0.82 in series [3] (24 h, replicate number 1); 0.74 in series [3] (24 h, replicate number 2).

For the molecule `CS(=O)(=O)CCNCc1ccc(-c2ccc3ncnc(Nc4ccc(OCc5cccc(F)c5)c(Cl)c4)c3c2)o1` [LAPATINIB], the “Growth Rate” value in series [1] (0 h, replicate number 1) amounted to 0.96; in series [1] (6 h, replicate number 1), 0.66; in series [1] (6 h, replicate number 2) it was 0.93; in series [1] (12 h, replicate number 1) it was 0.78; in series [1] (12 h, replicate number 2), 0.92; in series [1] (18 h, replicate number 1), 0.86. Moreover, the “Growth Rate” value in series [1] (18 h, replicate number 2) is listed as 0.99; in series [1] (24 h, replicate number 1), 0.9; in series [1] (24 h, replicate number 2) it was 0.98; in series [2] (0 h, replicate number 1) it was 0.86; in series [2] (6 h, replicate number 2) it was 0.95; in series [2] (12 h, replicate number 2), 0.94. Further, the “Growth Rate” value in series [2] (18 h, replicate number 2) is 0.95; in series [2] (24 h, replicate number 2), 0.87; in series [3] (0 h, replicate number 1) it was 0.88; in series [3] (6 h, replicate number 1) it was -0.42; in series [3] (6 h, replicate number 2), 0.69; in series [3] (12 h, replicate number 2), 0.65. For the same molecule, the “Growth Rate” value in series [3] (18 h, replicate number 2) came out at 0.7.

On to `Cc1cc(O)c(-c2ccc([C@@H](C)CN(C)C)cc2)c2c1[nH]c(=O)c1sccc12`, for which the “Growth Rate” value was -0.87 in series [1] (0 h, replicate number 1); -0.95 in series [1] (0 h, replicate number 2); 0.42 in series [1] (12 h, replicate number 1); 0.43 in series [1] (12 h, replicate number 2); 0.16 in series [1] (18 h, replicate number 1); 0.08 in series [1] (18 h, replicate number 2). Further, the “Growth Rate” value in series [1] (24 h, replicate number 1) is -0.11; in series [1] (24 h, replicate number 2), -0.1; in series [2] (6 h, replicate number 1), -0.94; in series [2] (6 h, replicate number 2) it was -0.93; in series [2] (12 h, replicate number 1), -0.89; in series [2] (12 h, replicate number 2), -0.74. The “Growth Rate” value in series [2] (18 h, replicate number 1) was -0.72; in series [2] (18 h, replicate number 2), -0.54; in series [2] (24 h, replicate number 1) it was -0.64; in series [2] (24 h, replicate number 2), -0.41; in series [3] (0 h, replicate number 1), 0.34; in series [3] (0 h, replicate number 2), 0.6. Moreover, the “Growth Rate” value in series [3] (6 h, replicate number 1) is given as -1; in series [3] (6 h, replicate number 2), -0.58; in series [3] (12 h, replicate number 2) it was -0.46; in series [3] (18 h, replicate number 2) it was -0.35; in series [3] (24 h, replicate number 1), 0.28; in series [3] (24 h, replicate number 2) it was -0.3.

The record behind these values is ChEMBL document CHEMBL5303304, “EUbOPEN Chemogenomics Library - IncuCyte” (2023).
